For 32 compounds, IC50 and EC50 results are on record in ChEMBL document CHEMBL4033637, “Developing DYRK inhibitors derived from the meridianins as a means of increasing levels of NFAT in the nucleus” (Bioorg Med Chem Lett, 2017).

Structures are written as SMILES.

Assay [1] addresses Glycogen synthase kinase-3 beta (Homo sapiens, UniProt P49841). Put plainly: Inhibition of full-length recombinant human His-tagged GSK3B recombinant in baculovirus expression system using Alexa-Fluor tracer-236 incubated for 60 mins by TR-FRET based Lantha-screen Eu kinase assay. (In general: Time-resolved FRET reads energy transfer from a long-lived donor to a nearby acceptor.)

The target of assay [2] is Dual specificity tyrosine-phosphorylation-regulated kinase 1A (Homo sapiens, UniProt Q13627).
Assay [3] is described as follows: Induction of nuclear localization of GFP-tagged NFAT (unknown origin) expressed in mouse muscle fibres by DAPI staining based assay.

Glycogen synthase kinase-3 beta, sequence (P49841 whole entry): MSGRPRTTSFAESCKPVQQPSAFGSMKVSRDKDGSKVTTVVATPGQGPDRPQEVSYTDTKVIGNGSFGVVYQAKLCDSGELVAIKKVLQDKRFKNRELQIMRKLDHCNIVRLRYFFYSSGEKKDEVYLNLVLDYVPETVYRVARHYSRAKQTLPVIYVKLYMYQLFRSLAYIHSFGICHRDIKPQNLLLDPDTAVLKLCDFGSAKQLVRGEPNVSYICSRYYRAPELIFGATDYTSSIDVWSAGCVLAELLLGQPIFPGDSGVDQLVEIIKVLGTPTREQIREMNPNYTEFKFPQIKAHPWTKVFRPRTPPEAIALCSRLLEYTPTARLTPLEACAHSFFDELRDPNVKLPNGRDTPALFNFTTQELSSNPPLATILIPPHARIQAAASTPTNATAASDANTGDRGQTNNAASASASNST

As a reminder, the IC50 is the concentration at which inhibition is half-maximal. On to `COc1ccc2c(-c3ccnc(N)n3)c[nH]c2c1`, for which the half-inhibitory concentration (IC50) in assay [1] (read-out: IC50) came out at 7960 nM; in assay [2] it was 443 nM. Regarding `Nc1cc(-c2c[nH]c3cc(C(F)(F)F)ccc23)ccn1`, the figures for the IC50 result in assay [1] and in assay [2] were “Not Active” and 4340 nM, respectively. With `N#Cc1cccc2c(-c3ccnc(N)n3)c[nH]c12`, the IC50 in assay [1] (read-out: IC50) was found to be 5160 nM; in assay [2], 138 nM. The matching figures for `Fc1ccc(Cn2cc(-c3ccncc3)c3ccncc32)cc1`: 1010 nM and 12 nM. The matching figures for `Nc1nccc(-c2c[nH]c3ccccc23)n1`: 14800 nM and 588 nM. In the case of `Nc1cc(-c2c[nH]c3c(Cl)cccc23)ccn1`, the half-inhibitory concentration (IC50) entry in assay [1] was “Not Active”; in assay [2], 94 nM. The like results for `Nc1cc(-c2c[nH]c3cc(Cl)ccc23)ccn1` were, in that order, “Not Active” and 2940 nM.

As to `Fc1cc(-c2c[nH]c3cnccc23)ccn1`, the 50% inhibitory concentration (IC50) entry in assay [1] is “Not Active”; in assay [2] it was 69 nM. Take `COc1ccc2c(c1)[nH]c1c(C)nccc12` [HARMINE]: in assay [1], the half-inhibitory concentration (IC50) entry is recorded as “Not Active”.

`N#Cc1cccc2c(-c3ccnc(N)c3)c[nH]c12`: the IC50 in assay [1] (read-out: IC50) amounted to 13900 nM; in assay [2] it was 790 nM. The like results for `Cn1cc(-c2ccncc2)c2ccncc21` were, in that order, 4780 nM and 89 nM. The matching figures for `COc1ccc2c(-c3ccnc(N)c3)c[nH]c2c1`: 12700 nM and 2900 nM. For the compound `COc1cccc2c(-c3ccnc(N)c3)c[nH]c12`, the half-maximal inhibitory concentration (IC50) result in assay [1] is “Not Active”; in assay [2], 2140 nM. The like results for `c1ccc2c(-c3c[nH]c4cnccc34)ccnc2c1` were, in that order, “Not Active” and 277 nM. The like results for `Nc1nccc(-c2c[nH]c3c(Cl)cccc23)n1` were, in that order, “Not Active” and 46 nM. As to `Nc1nccc(-c2c[nH]c3c([N+](=O)[O-])cccc23)n1`, the IC50 in assay [1] (read-out: IC50) amounted to 9950 nM. `c1cc(-c2cn(CCCN3CCOCC3)c3cnccc23)ccn1`: the IC50 in assay [1] (read-out: IC50) came out at 7580 nM; in assay [2], 109 nM. The like results for `Nc1nccc(-c2c[nH]c3cc(Cl)ccc23)n1` were, in that order, 10700 nM and 406 nM. The like results for `Clc1cnccc1-c1c[nH]c2cnccc12` were, in that order, 9610 nM and 61 nM. The matching figures for `Nc1nccc(-c2c[nH]c3cc(C(F)(F)F)ccc23)n1`: 15300 nM and 62 nM.

Regarding `c1cc(-c2cn(CCC3CC3)c3cnccc23)ccn1`, the half-maximal inhibitory concentration (IC50) is 1140 nM in assay [1] (read-out: IC50) and 8 nM in assay [2].

As to `Cc1nccc(-c2c[nH]c3cnccc23)n1`, the half-inhibitory concentration (IC50) entry in assay [1] was “Not Active”; in assay [2], 19 nM. With `Nc1cc(-c2c[nH]c3c([N+](=O)[O-])cccc23)ccn1`, the concentration for half-maximal inhibition (IC50) entry in assay [1] is “Not Active”; in assay [2] it was 285 nM. For orientation: EC50 means the concentration needed to bring the measured effect to its halfway point. Read a high EC50 as a need for much substance. For `CC(C)n1cc(-c2ccncc2)c2ccncc21`, the IC50 in assay [1] (read-out: IC50) stood at 660 nM; in assay [2] it was 8 nM. In addition, the response in assay [3] was half-maximal at 2800 nM (EC50). Take `c1cncc(-c2c[nH]c3cnccc23)c1`: the 50% inhibitory concentration (IC50) in assay [1] (read-out: IC50) is 31000 nM; in assay [2] it was 7960 nM.

Take `Nc1cc(-c2c[nH]c3cnccc23)ccn1`: the values for the IC50 result in assay [1] and in assay [2] were “Not Active” and 2020 nM, respectively. With `Nc1nccc(-c2c[nH]c3c(Br)cccc23)n1`, the concentration for half-maximal inhibition (IC50) in assay [1] (read-out: IC50) came out at 22400 nM; in assay [2] it was 79 nM.

For the compound `Nc1nccc(-c2c[nH]c3cnccc23)n1`, the values for the IC50 in assay [1] (read-out: IC50) and in assay [2] were 12300 nM and 1 nM, respectively.

In the case of `c1cc(-c2c[nH]c3cnccc23)ccn1`, the figures for the IC50 in assay [1] (read-out: IC50) and in assay [2] were 9230 nM and 1 nM, respectively. With `COc1cccc2c(-c3ccnc(N)n3)c[nH]c12`, the IC50 in assay [1] (read-out: IC50) came to 15800 nM; in assay [2], 242 nM. For the compound `COc1cc(-c2c[nH]c3cnccc23)ccn1`, the results for the 50% inhibitory concentration (IC50) result in assay [1] and in assay [2] were “Not Active” and 351 nM, respectively. The like results for `Cc1cc(-c2c[nH]c3cnccc23)ccn1` were, in that order, “Not Active” and 75 nM.
